Molecules are shown by their SMILES.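 1) Cells in 96-well plates. 2) Compound, 48 h, 5 concentrations. 3) Linear interpolation between surrounding doses. 4) Unreached endpoint = highest concentration. The concentration for 50% growth inhibition is given as GI50. TGI marks complete inhibition of growth.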 A value given as a limit tells only on which side of the number the result lay.

Some test systems named below: ACHN renal; K-562 leukemia; MCF7 breast; NCI-H522 lung; OVCAR-4 ovarian; OVCAR-5 ovarian; SK-MEL-28 melanoma; SR leukemia; TK-10 renal; U251 CNS; MDA-N.
Assay in all cases: NCI tumour cell line growth inhibition, 48 h

Consider `CCN(CC)CCS(=O)c1c2cc(OC)ccc2nc2ccc(OC)cc12` (centres undefined), for which the TGI in the assay with ACHN renal is 5.44 µM; in the assay with K-562 leukemia it was more than 25.7 µM; with MCF7 breast, more than 24.9 µM; in the assay on NCI-H522 lung, 1.38 µM; in the assay with OVCAR-4 ovarian, 29.7 µM; with OVCAR-5 ovarian it was 36.1 µM. Also, the TGI in the assay on SK-MEL-28 melanoma was 34.4 µM; in the assay on SR leukemia, more than 23.7 µM; in the assay with TK-10 renal, 11.7 µM; in the assay with U251 CNS, more than 60.6 µM.
For the compound `COc1ccc(CN(CCc2c[nH]c3ccccc23)Cc2ccc(OC)cc2)cc1`, the TGI in the assay with ACHN renal was 17.8 µM; with K-562 leukemia it was more than 100 µM; in the assay on MCF7 breast it was more than 100 µM; with NCI-H522 lung, 8.77 µM; in the assay on OVCAR-4 ovarian it was 12.7 µM; with OVCAR-5 ovarian, 9.62 µM. In addition, the figures for the TGI in the assay on SK-MEL-28 melanoma, in the assay on SR leukemia and in the assay with TK-10 renal were more than 80.4 µM, more than 100 µM and 3.97 µM, respectively.
In the case of `CCOC(=O)c1nc2ccc(C(F)(F)F)cc2nc1Oc1ccc(F)cc1`, the TGI in the assay with ACHN renal, in the assay with K-562 leukemia, in the assay on MCF7 breast, in the assay on OVCAR-4 ovarian, in the assay with SK-MEL-28 melanoma and in the assay on SR leukemia was more than 100 µM each time. The TGI with TK-10 renal and in the assay on U251 CNS was more than 100 µM each time.
For `CCOC(=O)c1c(NC(=O)Nc2ccccc2)c(C(N)=O)c2n1CCCCC2`, the TGI with ACHN renal, in the assay on K-562 leukemia, in the assay on MCF7 breast, with OVCAR-4 ovarian, in the assay with SK-MEL-28 melanoma and in the assay on SR leukemia was more than 100 µM in each case. The TGI in the assay on TK-10 renal and in the assay with U251 CNS was more than 100 µM in each case.
As for `C=C[C@H]1CN2CCc3c([nH]c4c([C@H]5CCCN5C)c(O)ccc34)[C@@H]2C[C@@H]1C[C@H]1c2[nH]c3ccccc3c2CCN1C`, the TGI in the assay with ACHN renal was found to be 3.33 µM; in the assay with MCF7 breast, 2.22 µM; in the assay with MDA-N it was 2.64 µM; with NCI-H522 lung it was 3.52 µM; in the assay on OVCAR-4 ovarian it was 3.27 µM; in the assay with OVCAR-5 ovarian, 3.26 µM. Also, the TGI is 3.3 µM with SK-MEL-28 melanoma, 3.36 µM in the assay with TK-10 renal and 2.92 µM in the assay on U251 CNS. Moreover, the GI50 with MCF7 breast is 1.05 µM.
As for `C=C1C(=O)C23CC1C[C@H](OC(C)=O)C2C1(C)C(OC(C)=O)C[C@H](O)C(C)(C)[C@H]1C(O)[C@@H]3OC(C)=O` (some centres undefined), the TGI in the assay with ACHN renal came to 24.3 µM; with K-562 leukemia, 10.9 µM; in the assay with MCF7 breast it was 19.4 µM; in the assay on NCI-H522 lung, 3.34 µM; with OVCAR-4 ovarian, 25.7 µM; in the assay on OVCAR-5 ovarian it was 28.8 µM. For the same compound, the TGI is 24.4 µM in the assay on SK-MEL-28 melanoma, 27.4 µM in the assay on SR leukemia, 17 µM in the assay with TK-10 renal and 28.9 µM in the assay with U251 CNS.
For the compound `CC1N(C)C(=O)OC12CCN(CCCC(=O)c1ccc(F)cc1)CC2` (centres undefined), the TGI with ACHN renal, in the assay on K-562 leukemia, in the assay on MCF7 breast, with MDA-N, with NCI-H522 lung and in the assay with OVCAR-5 ovarian was more than 100 µM in each case. The TGI in the assay on SK-MEL-28 melanoma, in the assay on TK-10 renal and in the assay on U251 CNS was more than 100 µM throughout.
As to `CCOC(=O)CCC(NC(=O)c1ccc(Nc2nc3cc(C(F)(F)F)ccc3nc2-c2ccccc2)cc1)C(=O)OCC` (centres undefined), the TGI in the assay with ACHN renal, with K-562 leukemia, in the assay with MCF7 breast, with OVCAR-4 ovarian, with OVCAR-5 ovarian and in the assay with SK-MEL-28 melanoma was more than 100 µM throughout. Also, the TGI in the assay with SR leukemia, with TK-10 renal and in the assay with U251 CNS was more than 100 µM each time.
For the compound `O=C1CCCC2=C1CC1=C(CCCC1=O)N2c1cccc2ccccc12`, the TGI in the assay on ACHN renal, in the assay with K-562 leukemia, with MCF7 breast, with OVCAR-4 ovarian, in the assay with OVCAR-5 ovarian and in the assay with SK-MEL-28 melanoma was more than 100 µM in each case. Moreover, the TGI in the assay on SR leukemia, with TK-10 renal and in the assay on U251 CNS was more than 100 µM in each case.
Take `CNC(=O)CCNC(=O)CCC(=O)OC`: the TGI with ACHN renal, in the assay with K-562 leukemia, with MCF7 breast, with MDA-N, in the assay on OVCAR-4 ovarian and in the assay with OVCAR-5 ovarian was more than 100 µM each time. The TGI in the assay with SK-MEL-28 melanoma, in the assay on TK-10 renal and with U251 CNS was more than 100 µM throughout.
For `S=C(Nc1cccc(Cl)c1)Nc1ccccn1`, the TGI in the assay on K-562 leukemia, in the assay on MCF7 breast, in the assay with OVCAR-4 ovarian, in the assay on OVCAR-5 ovarian, with SK-MEL-28 melanoma and in the assay on SR leukemia was more than 100 µM in each case. Further, the TGI in the assay on TK-10 renal and in the assay with U251 CNS was more than 100 µM each time.

The values are drawn from PubChem BioAssay (NCI).
